The record followed here is PubChem BioAssay AID652210 (Johns Hopkins Ion Channel Center, 2013).

This experiment concerns the target Potassium channel subfamily K member 9 (Homo sapiens) (UniProt Q9NPC2). Description: TASK3 channel blockers, electrophysiology – cell-based, automated electrophysiology, selectivity assay for TASK1 (KCNK3) inhibitor project, SAR follow-up (AID 652210). As to conditions: HEK293 inducible KCNK9, QPatch automated patch clamp.

Active and inactive are the calls of the source.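 The calls were made as follows: active = over half block of KCNK9 potassium channel current at 10 µM; inactive = the rest.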

Sequence of Potassium channel subfamily K member 9 (Homo sapiens) (Q9NPC2 whole entry, looked up): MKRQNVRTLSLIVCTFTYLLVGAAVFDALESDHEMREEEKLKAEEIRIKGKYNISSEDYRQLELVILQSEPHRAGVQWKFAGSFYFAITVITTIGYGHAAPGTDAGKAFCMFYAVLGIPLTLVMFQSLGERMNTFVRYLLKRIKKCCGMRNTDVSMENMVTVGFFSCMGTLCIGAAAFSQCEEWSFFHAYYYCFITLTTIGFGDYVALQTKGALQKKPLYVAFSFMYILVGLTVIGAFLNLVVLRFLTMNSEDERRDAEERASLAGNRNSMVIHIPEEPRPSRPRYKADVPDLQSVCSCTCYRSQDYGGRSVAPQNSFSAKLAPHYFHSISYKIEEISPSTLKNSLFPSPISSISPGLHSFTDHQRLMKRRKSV

As for `Cc1cccc(C(=O)Nc2cccc(NC(=O)c3ccccc3)c2)c1`, the IC50 was 690 nM.
In the case of `Cc1cccc(C(=O)Nc2cccc(NC(=O)c3ccncc3)c2)c1`, the IC50 result is “inactive”.
